For this experiment, the system named is L1210 leukemia ip in BDF1 mice, survival T/C. The experiment in a line: NCI In Vivo Anticancer Drug Screen. Data for tumor model L1210 Leukemia (intraperitoneal) in B6D2F1 (BDF1) mice. The following applies: endpoint: mean survival time, higher = longer survival. In a few lines:
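In this screen, tumor-bearing mice given compound are compared to those given vehicle, and their survival values are reported as a treated-to-control quotient.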

Setting [1] is: dose: 100.0 mg/kg/injection, schedule: Q01DX Z (ip), vehicle: methylcellulose (MC).
Setting [2] is: dose: 200.0 mg/kg/injection, schedule: Q01DX Z (ip), vehicle: methylcellulose (MC).
Where [3] appears, read: dose: 100.0 mg/kg/injection, schedule: Q04DX003 (ip), vehicle: saline with Tween-80.
Where [4] appears, read: dose: 200.0 mg/kg/injection, schedule: Q04DX003 (ip), vehicle: saline with Tween-80.
Setting [5] is: dose: 400.0 mg/kg/injection, schedule: Q04DX003 (ip), vehicle: saline with Tween-80.
Where [6] appears, read: dose: 100.0 mg/kg/injection, schedule: Q01DX009 (ip), vehicle: saline with Tween-80.
The mark [7] stands for this setting: dose: 50.0 mg/kg/injection, schedule: Q04DX003 (ip), vehicle: Klucel (hydroxypropylcellulose) (HPC).
Where [8] appears, read: dose: 100.0 mg/kg/injection, schedule: Q04DX003 (ip), vehicle: Klucel (hydroxypropylcellulose) (HPC).
The mark [9] stands for this setting: dose: 200.0 mg/kg/injection, schedule: Q04DX003 (ip), vehicle: Klucel (hydroxypropylcellulose) (HPC).
The mark [10] stands for this setting: dose: 100.0 mg/kg/injection, schedule: Q01DX001 (ip), vehicle: Klucel (hydroxypropylcellulose) (HPC).
Setting [11] is: dose: 200.0 mg/kg/injection, schedule: Q01DX001 (ip), vehicle: Klucel (hydroxypropylcellulose) (HPC).
[12] abbreviates: dose: 400.0 mg/kg/injection, schedule: Q01DX001 (ip), vehicle: Klucel (hydroxypropylcellulose) (HPC).
[13] abbreviates: dose: 100.0 mg/kg/injection, schedule: Q01DX001 (ip), vehicle: saline.
The mark [14] stands for this setting: dose: 200.0 mg/kg/injection, schedule: Q01DX001 (ip), vehicle: saline.
Where [15] appears, read: dose: 100.0 mg/kg/injection, schedule: Q01DX009 (ip), vehicle: Klucel (hydroxypropylcellulose) (HPC).
[16] abbreviates: dose: 200.0 mg/kg/injection, schedule: Q01DX009 (ip), vehicle: Klucel (hydroxypropylcellulose) (HPC).
Where [17] appears, read: dose: 400.0 mg/kg/injection, schedule: Q01DX009 (ip), vehicle: Klucel (hydroxypropylcellulose) (HPC).
Where [18] appears, read: dose: 400.0 mg/kg/injection, schedule: Q04DX003 (ip), vehicle: Klucel (hydroxypropylcellulose) (HPC).
[19] abbreviates: dose: 400.0 mg/kg/injection, schedule: Q01DX001 (ip), vehicle: saline.

Where “and” joins values, the source holds several entries; their conditions need not be identical. Equal entries are not always repeated. Inconclusive results and toxic doses are left out.

With `Cc1cccc(Nc2nc(N)nc(N)c2N=O)c1C`, the T/C is, setting by setting: under setting [1], 96 % of control; under setting [2], 102 % of control.

`Clc1ccc(CSc2ncc(Br)c(N3CC3)n2)cc1`: the T/C was 93 % of control under setting [1] and 88 % of control under setting [2].

With `CC(C)(Br)C(=O)c1ccc(Cl)s1`, the T/C is, setting by setting: under setting [3], 96 % of control; under setting [4], 107 % of control; under setting [5], 105 % of control.

As to `c1ccc(-c2cc(-c3ccccc3)[s+]s2)cc1`, the T/C is, setting by setting: (dose: 50.0 mg/kg/injection, schedule: Q01DX009 (ip), vehicle: saline with Tween-80) 100 % of control; under setting [6], 90 % of control; under setting [3], 113 % of control; under setting [4], 92 % of control; under setting [5], 88 % of control.

Take `CC(=O)Nc1ccc(S(=O)(=O)N2CC2)cc1`: the T/C by setting is: (dose: 50.0 mg/kg/injection, schedule: Q01DX005 (ip), vehicle: saline) 102 % of control; under setting [7], 91 % of control; (dose: 100.0 mg/kg/injection, schedule: Q01DX005 (ip), vehicle: saline) 96 % of control; under setting [8], 102 % of control; (dose: 200.0 mg/kg/injection, schedule: Q01DX005 (ip), vehicle: saline) 102 % of control; under setting [9], 95 % of control.

For the compound `COC(=O)CNc1ccc(O)cc1`, the T/C runs as follows: (dose: 100.0 mg/kg/injection, schedule: Q04DX003 (ip), vehicle: other) 102 % of control; (dose: 200.0 mg/kg/injection, schedule: Q04DX003 (ip), vehicle: other) 94 % of control; (dose: 400.0 mg/kg/injection, schedule: Q04DX003 (ip), vehicle: other) 88 % of control.

Regarding `CCc1nnnn1-c1ccc(Br)cc1`, the T/C was 93 % of control under setting [10], 102 % of control under setting [11] and 116 % of control under setting [12].

On to `CS/C(N)=N\C(=S)Nc1ccccc1`, for which the T/C is, setting by setting: under setting [3], 95 % of control; under setting [4], 97 % of control; under setting [5], 101 % of control.

As to `CN1CCN(Cc2c(O)ccc3c2OC(C)(C)C2=C3CCCC2)CC1`, the T/C under setting [13] is 89 % of control and the T/C under setting [14] was 98 % of control.

Turning to `CCCCCCCCCCCCCCCCCCNC(=O)N1CCCCC1C` (configuration not stated), the T/C is 89 % of control under setting [15], 96 % of control under setting [16] and 100 % of control under setting [17].

In the case of `Cc1cc(Sc2cc(C)[n+]([O-])c(C)c2)cc(C)[n+]1[O-]`, the T/C under setting [8] was 103 % of control, the T/C under setting [9] is 100 % of control and the T/C under setting [18] was 114 % of control.

Regarding `CCc1ccc2c(c1)Nc1ccccc1S2`, the T/C runs as follows: (dose: 50.0 mg/kg/injection, schedule: Q01DX009 (ip), vehicle: Klucel (hydroxypropylcellulose) (HPC)) 97 % of control; under setting [7], 91 % of control; under setting [15], 97 % of control; under setting [8], 96 % of control; under setting [16], 101 % of control; under setting [9], 97 % of control. Also, the T/C under setting [18] is 86 % of control.

`NC(=O)CCCCCCCC(N)=O`: the T/C runs as follows: under setting [8], 89 % of control; under setting [9], 89 % of control; under setting [18], 94 % of control.

In the case of `Oc1ccc(O)c(CCCCCc2cc(O)ccc2O)c1`, the T/C is 106 % of control (dose: 25.0 mg/kg/injection, schedule: Q01DX009 (ip), vehicle: other); 98 % of control (dose: 50.0 mg/kg/injection, schedule: Q01DX009 (ip), vehicle: other); 104 % of control (dose: 100.0 mg/kg/injection, schedule: Q01DX001 (ip), vehicle: saline with Tween-80); 97 % of control (dose: 100.0 mg/kg/injection, schedule: Q01DX009 (ip), vehicle: other); 100 % of control (dose: 200.0 mg/kg/injection, schedule: Q01DX001 (ip), vehicle: saline with Tween-80); 100 % of control (dose: 400.0 mg/kg/injection, schedule: Q01DX001 (ip), vehicle: saline with Tween-80).

With `C/C=C\C=C\COC(=O)CC(C)C`, the T/C is 103 % of control (dose: 100.0 mg/kg/injection, schedule: Q04DX002 (ip), vehicle: saline); 103 % of control (dose: 200.0 mg/kg/injection, schedule: Q04DX002 (ip), vehicle: saline); 103 % of control (dose: 400.0 mg/kg/injection, schedule: Q04DX002 (ip), vehicle: saline).

As to `CCSc1ncnc2c1ncn2CN1CCOCC1`, the T/C is, setting by setting: (dose: 15.0 mg/kg/injection, schedule: Q01DX009 (ip), vehicle: saline) 116 % of control; (dose: 40.0 mg/kg/injection, schedule: Q01DX009 (ip), vehicle: Klucel (hydroxypropylcellulose) (HPC)) 113 % of control; (dose: 45.0 mg/kg/injection, schedule: Q01DX009 (ip), vehicle: saline) 103 % of control and 111 % of control; under setting [7], 100 % of control; (dose: 60.0 mg/kg/injection, schedule: Q01DX009 (ip), vehicle: Klucel (hydroxypropylcellulose) (HPC)) 116 % of control; (dose: 65.0 mg/kg/injection, schedule: Q01DX009 (ip), vehicle: saline) 103 % of control and 111 % of control. For the same compound, the T/C (dose: 66.0 mg/kg/injection, schedule: Q01DX009 (ip), vehicle: saline) was 116 % of control; the T/C (dose: 100.0 mg/kg/injection, schedule: Q01DX009 (ip), vehicle: saline) was 108 % of control; the T/C under setting [8] was 105 % of control; the T/C (dose: 100.0 mg/kg/injection, schedule: Q04DX003 (ip), vehicle: saline) is 115 % of control; the T/C (dose: 120.0 mg/kg/injection, schedule: Q01DX009 (ip), vehicle: saline) is 177 % of control; the T/C (dose: 150.0 mg/kg/injection, schedule: Q01DX009 (ip), vehicle: saline) is 164 % of control and 168 % of control. The T/C runs as follows: (dose: 150.0 mg/kg/injection, schedule: Q04DX003 (ip), vehicle: saline) 111 % of control; (dose: 175.0 mg/kg/injection, schedule: Q01DX009 (ip), vehicle: saline) 151 % of control; under setting [16], 173 % of control; under setting [9], 109 % of control; (dose: 220.0 mg/kg/injection, schedule: Q01DX009 (ip), vehicle: saline) 160 % of control; (dose: 220.0 mg/kg/injection, schedule: Q04DX003 (ip), vehicle: saline) 119 % of control. In addition, the T/C is 122 % of control (dose: 225.0 mg/kg/injection, schedule: Q01DX009 (ip), vehicle: saline); 95 % of control (dose: 265.0 mg/kg/injection, schedule: Q01DX009 (ip), vehicle: saline); 107 % of control (dose: 330.0 mg/kg/injection, schedule: Q01DX009 (ip), vehicle: saline); 88 % of control (dose: 400.0 mg/kg/injection, schedule: Q01DX009 (ip), vehicle: saline).

On to `CC(=O)N1C(CO)C(O)C(O)C1n1cnc2c(N)ncnc21` (configuration not stated), for which the T/C runs as follows: under setting [13], 106 % of control; under setting [14], 96 % of control; under setting [19], 96 % of control.

As to `COc1ccc(/C=N\NC(=O)CCCCC(=O)N/N=C\c2ccc(OC)cc2)cc1`, the T/C was 106 % of control under setting [10], 98 % of control under setting [11] and 91 % of control under setting [12].

For `O=CN/N=C/c1ccc2c(c1)CCC2`, the T/C under setting [6] is 97 % of control; the T/C (dose: 200.0 mg/kg/injection, schedule: Q01DX009 (ip), vehicle: saline with Tween-80) is 102 % of control; the T/C (dose: 400.0 mg/kg/injection, schedule: Q01DX009 (ip), vehicle: saline with Tween-80) was 98 % of control.

For the compound `Nc1ncnc(Nc2ccc([N+](=O)[O-])cc2)c1[N+](=O)[O-]`, the T/C reads like this: under setting [15], 97 % of control; under setting [16], 92 % of control; under setting [17], 96 % of control.

Turning to `CC(C)(CC(=O)NNc1ccccc1)C(=O)O`, the T/C (dose: 50.0 mg/kg/injection, schedule: Q01DX001 (ip), vehicle: saline) was 97 % of control; the T/C under setting [13] is 102 % of control; the T/C under setting [14] is 100 % of control; the T/C under setting [19] was 102 % of control.
